This is an account of results in ChEMBL document CHEMBL1152332, “Calothrixins, a new class of human DNA topoisomerase I poisons” (J Nat Prod, 2009).

A word on the IC50: it is the midpoint of a concentration-inhibition curve.

Calls of active or inactive are those of the source. The rule behind the calls is not given here.

For test [1], the target named is T1, DNA topoisomerase 1 (Homo sapiens) (UniProt P11387).
T1 sequence (whole entry): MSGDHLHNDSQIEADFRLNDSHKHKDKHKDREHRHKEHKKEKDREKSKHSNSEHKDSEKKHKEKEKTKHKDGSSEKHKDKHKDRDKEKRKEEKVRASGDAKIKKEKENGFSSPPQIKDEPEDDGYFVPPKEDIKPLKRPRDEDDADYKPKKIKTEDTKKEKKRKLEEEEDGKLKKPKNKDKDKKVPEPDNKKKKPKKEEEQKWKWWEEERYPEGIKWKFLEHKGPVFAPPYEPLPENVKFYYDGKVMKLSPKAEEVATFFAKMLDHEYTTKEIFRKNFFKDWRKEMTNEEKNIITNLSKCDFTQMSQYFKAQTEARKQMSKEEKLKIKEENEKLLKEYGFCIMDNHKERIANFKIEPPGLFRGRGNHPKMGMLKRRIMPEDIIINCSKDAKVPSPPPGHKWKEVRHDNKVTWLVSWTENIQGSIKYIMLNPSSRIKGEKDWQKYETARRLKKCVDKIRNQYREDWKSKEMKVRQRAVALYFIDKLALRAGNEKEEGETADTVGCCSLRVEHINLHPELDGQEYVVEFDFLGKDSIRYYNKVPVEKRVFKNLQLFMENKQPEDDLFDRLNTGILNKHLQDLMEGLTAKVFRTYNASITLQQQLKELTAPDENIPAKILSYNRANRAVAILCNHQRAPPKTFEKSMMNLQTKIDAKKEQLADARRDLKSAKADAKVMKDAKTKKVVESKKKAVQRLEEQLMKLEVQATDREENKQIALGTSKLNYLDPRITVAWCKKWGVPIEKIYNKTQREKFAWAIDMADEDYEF
Description: Induction of human DNA topoisomerase 1-mediated DNA cleavage at 1 to 10 uM by polyacrylamide gel electrophoresis.

Test [2] concerns the target T1, DNA topoisomerase 1 (Homo sapiens). Description: Reversal of drug-stabilized human DNA topoisomerase 1-DNA binary complex at 5 uM within 5 mins by polyacrylamide gel electrophoresis in presence of 0.35 M NaCl.
In test [3] the test system is CCRF-CEM. Nature of the test: Cell cycle arrest in human CCRF-CEM cells assessed as accumulation at subG1 phase at 10 uM treated for 3 hrs measured for 15 hrs after nocodazole treatment by flow cytometry in presence of mitotic inhibitor nocodazole. The class given is functional. In general terms: A flow cytometer gives signals particle by particle.
Test [4] relates to CCRF-CEM. Description: Cell cycle arrest in human CCRF-CEM cells assessed as accumulation at G0 phase at 10 uM treated for 3 hrs measured for 15 hrs after nocodazole treatment by flow cytometry in presence of mitotic inhibitor nocodazole. The format is functional.
The subject of test [5] is CCRF-CEM. Nature of the test: Cell cycle arrest in human CCRF-CEM cells assessed as accumulation at G2/M phase at 10 uM treated for 3 hrs followed by drug washout and 15 hrs incubation in drug free medium by flow cytometry. The format is functional.
Test [6] has as its system CCRF-CEM. Nature of the test: Cell cycle arrest in human CCRF-CEM cells assessed as accumulation at subG1 phase at 10 uM treated for 3 hrs followed by drug washout and 15 hrs incubation in drug free medium by flow cytometry. The format is functional.
Test [7] has as its system CCRF-CEM. Description: Cell cycle arrest in human CCRF-CEM cells assessed as accumulation at G0 phase at 10 uM treated for 3 hrs followed by drug washout and 15 hrs incubation in drug free medium by flow cytometry. The format is functional.
Test [8] concerns CCRF-CEM. Description: Cytotoxicity against p38-proficient human CCRF-CEM cells after 3 days by MTT assay. The format is functional, cell-based. The note with it: 72 h.
In test [9] the test system is CCRF-CEM. Description: Cell cycle arrest in human CCRF-CEM cells assessed as accumulation at S phase at 1 uM treated for 3 hrs followed by drug washout and 15 hrs incubation in drug free medium by flow cytometry. The format is functional.
In test [10] the test system is CCRF-CEM. Description: Cell cycle arrest in human CCRF-CEM cells assessed as accumulation at G0 phase at 1 uM treated for 3 hrs measured for 15 hrs after nocodazole treatment by flow cytometry in presence of mitotic inhibitor nocodazole. The class given is functional.
In test [11] the test system is CCRF-CEM. Nature of the test: Cell cycle arrest in human CCRF-CEM cells assessed as accumulation at G0 phase at 0.1 uM treated for 3 hrs followed by drug washout and 15 hrs incubation in drug free medium by flow cytometry. The class given is functional.
Test [12] concerns CCRF-CEM. Nature of the test: Cell cycle arrest in human CCRF-CEM cells assessed as accumulation at S phase at 0.1 uM treated for 3 hrs followed by drug washout and 15 hrs incubation in drug free medium by flow cytometry. The format is functional.
The subject of test [13] is CCRF-CEM. Description: Cell cycle arrest in human CCRF-CEM cells assessed as accumulation at G0 phase at 0.1 uM treated for 3 hrs measured for 15 hrs after nocodazole treatment by flow cytometry in presence of mitotic inhibitor nocodazole. The format is functional.
Test [14] has as its system CCRF-CEM. Description: Cell cycle arrest in human CCRF-CEM cells assessed as accumulation at S phase at 10 uM treated for 3 hrs measured for 15 hrs after nocodazole treatment by flow cytometry in presence of mitotic inhibitor nocodazole. The class given is functional.
For test [15], the system named is CCRF-CEM. Nature of the test: Cell cycle arrest in human CCRF-CEM cells assessed as accumulation at subG1 phase at 0.1 uM treated for 3 hrs measured for 15 hrs after nocodazole treatment by flow cytometry in presence of mitotic inhibitor nocodazole. The class given is functional.
Test [16] relates to CCRF-CEM. Description: Cell cycle arrest in human CCRF-CEM cells assessed as accumulation at G2/M phase at 1 uM treated for 3 hrs measured for 15 hrs after nocodazole treatment by flow cytometry in presence of mitotic inhibitor nocodazole. The class given is functional.
The test system of test [17] is CCRF-CEM. Description: Cell cycle arrest in human CCRF-CEM cells assessed as accumulation at S phase at 1 uM treated for 3 hrs measured for 15 hrs after nocodazole treatment by flow cytometry in presence of mitotic inhibitor nocodazole. The format is functional.
Test [18] has as its system CCRF-CEM. Description: Cell cycle arrest in human CCRF-CEM cells assessed as accumulation at G2/M phase at 0.1 uM treated for 3 hrs measured for 15 hrs after nocodazole treatment by flow cytometry in presence of mitotic inhibitor nocodazole. The format is functional.
In test [19] the test system is CCRF-CEM. Description: Cell cycle arrest in human CCRF-CEM cells assessed as accumulation at G2/M phase at 0.1 uM treated for 3 hrs followed by drug washout and 15 hrs incubation in drug free medium by flow cytometry. The class given is functional.
Test [20] concerns CCRF-CEM. Description: Cell cycle arrest in human CCRF-CEM cells assessed as accumulation at G0 phase at 1 uM treated for 3 hrs followed by drug washout and 15 hrs incubation in drug free medium by flow cytometry. The format is functional.
The test system of test [21] is CCRF-CEM. Description: Cell cycle arrest in human CCRF-CEM cells assessed as accumulation at subG1 phase at 1 uM treated for 3 hrs followed by drug washout and 15 hrs incubation in drug free medium by flow cytometry. The format is functional.
In test [22] the test system is CCRF-CEM. Nature of the test: Cell cycle arrest in human CCRF-CEM cells assessed as accumulation at G2/M phase at 1 uM treated for 3 hrs followed by drug washout and 15 hrs incubation in drug free medium by flow cytometry. The format is functional.
The test system of test [23] is CCRF-CEM. Nature of the test: Cell cycle arrest in human CCRF-CEM cells assessed as accumulation at S phase at 0.1 uM treated for 3 hrs measured for 15 hrs after nocodazole treatment by flow cytometry in presence of mitotic inhibitor nocodazole. The format is functional.
For test [24], the system named is CCRF-CEM. Description: Cell cycle arrest in human CCRF-CEM cells assessed as accumulation at G2/M phase at 10 uM treated for 3 hrs measured for 15 hrs after nocodazole treatment by flow cytometry in presence of mitotic inhibitor nocodazole. The class given is functional.
Test [25] has as its system CCRF-CEM. Nature of the test: Cell cycle arrest in human CCRF-CEM cells assessed as accumulation at S phase at 10 uM treated for 3 hrs followed by drug washout and 15 hrs incubation in drug free medium by flow cytometry. The class given is functional.
Test [26] concerns CCRF-CEM. Nature of the test: Cell cycle arrest in human CCRF-CEM cells assessed as accumulation at subG1 phase at 0.1 uM treated for 3 hrs followed by drug washout and 15 hrs incubation in drug free medium by flow cytometry. The format is functional.
Test [27] has as its system CCRF-CEM. Nature of the test: Cell cycle arrest in human CCRF-CEM cells assessed as accumulation at subG1 phase at 1 uM treated for 3 hrs measured for 15 hrs after nocodazole treatment by flow cytometry in presence of mitotic inhibitor nocodazole. The format is functional.

In test [1], `CO[n+]1cc2c(c3ccccc31)C(=O)c1[nH]c3ccccc3c1C2=O` returned an Activity of 11%. Further, in test [2], the result was Active.

Consider `O=C1c2c[n+]([O-])c3ccccc3c2C(=O)c2[nH]c3ccccc3c21` [CALOTHRIXIN A], for which the Activity in the test with CCRF-CEM [3] was 2.1%; with CCRF-CEM [4] it was 13%; in test [1] it was 18%; with CCRF-CEM [5] it was 23.6%; in the test on CCRF-CEM [6], 9.1%; with CCRF-CEM [7] it was 50.1%. The Activity is on record as 15.3% with CCRF-CEM [9]; 13.3% in the test with CCRF-CEM [10]; 51.4% in the test with CCRF-CEM [11]; 17.3% with CCRF-CEM [12]; 8.3% in the test with CCRF-CEM [13]; 7.5% in the test on CCRF-CEM [14]. For the same molecule, the Activity in the test on CCRF-CEM [15] turned out to be 7.7%; in the test with CCRF-CEM [16], 29.5%; with CCRF-CEM [17], 8.7%; in the test on CCRF-CEM [18] it was 16.8%; in the test on CCRF-CEM [19], 19.4%; in the test with CCRF-CEM [20], 47.3%. The Activity in the test with CCRF-CEM [21] was 16%; in the test with CCRF-CEM [22] it was 19%; in the test on CCRF-CEM [23], 4%; in the test on CCRF-CEM [24] it was 37%; in the test on CCRF-CEM [25] it was 15.3%; in the test with CCRF-CEM [26], 10.3%. Also, in the test on CCRF-CEM [27], the Activity stood at 4.2%. Further, the outcome in test [2] was Active. The molecule further showed an IC50 in the test with CCRF-CEM [8] of 200 nM.

Take `O=C1c2[nH]c3ccccc3c2C(=O)c2cnc3ccccc3c21` [CALOTHRIXIN B]: the Activity worked out at 6.4% in the test with CCRF-CEM [3]; 7.7% in the test with CCRF-CEM [4]; 24% in test [1]; 18.6% in the test with CCRF-CEM [5]; 11.2% with CCRF-CEM [6]; 51.4% with CCRF-CEM [7]. The Activity in the test on CCRF-CEM [9] was 18.2%; in the test on CCRF-CEM [10], 7.4%; in the test with CCRF-CEM [11], 55.6%; with CCRF-CEM [12], 17.6%; with CCRF-CEM [13] it was 25.3%; in the test on CCRF-CEM [14], 4.6%. Besides, the Activity in the test on CCRF-CEM [15] was 6.2%; in the test with CCRF-CEM [16], 18.8%; with CCRF-CEM [17], 4.8%; with CCRF-CEM [18], 61.5%; with CCRF-CEM [19], 17.3%; with CCRF-CEM [20], 55.6%. For the same molecule, the Activity came to 7.9% in the test with CCRF-CEM [21]; 16.5% in the test with CCRF-CEM [22]; 4.5% in the test with CCRF-CEM [23]; 18.2% in the test with CCRF-CEM [24]; 17% in the test on CCRF-CEM [25]; 7.5% in the test on CCRF-CEM [26]. The Activity in the test with CCRF-CEM [27] is listed as 4.6%. For the same molecule, in test [2], the result was Active. Besides, half-maximal inhibition in the test with CCRF-CEM [8] (IC50) was put at 1050 nM.

For `CC[C@@]1(O)C(=O)OCc2c1cc1n(c2=O)Cc2cc3ccccc3nc2-1` [CAMPTOTHECIN], inhibition with CCRF-CEM [8] was half-maximal at 40 nM (IC50). In addition, the Activity turned out to be 15.5% with CCRF-CEM [9]; 23.6% with CCRF-CEM [10]; 21.7% in the test with CCRF-CEM [16]; 10.3% in the test with CCRF-CEM [17]; 34.6% in the test on CCRF-CEM [20]; 18% in the test with CCRF-CEM [21]. For the same molecule, the Activity with CCRF-CEM [22] turned out to be 28.4%; in the test with CCRF-CEM [27] it was 17.5%.

With `C[n+]1cc2c(c3ccccc31)C(=O)c1[nH]c3ccccc3c1C2=O.[I-]` [N-METHYLCALOTHRIXIN B], the Activity in the test on CCRF-CEM [3] was determined as 6.9%; in the test with CCRF-CEM [4], 11.6%; in test [1], 11%; in the test on CCRF-CEM [5] it was 19%; in the test with CCRF-CEM [6], 11.8%; with CCRF-CEM [7], 51.7%. Besides, the Activity in the test with CCRF-CEM [9] turned out to be 17%; with CCRF-CEM [10], 6.9%; with CCRF-CEM [11] it was 50.3%; in the test with CCRF-CEM [12] it was 17.8%; in the test with CCRF-CEM [13], 5.1%; with CCRF-CEM [14] it was 11.3%. The Activity in the test with CCRF-CEM [15] is listed as 3.7%; in the test with CCRF-CEM [16], 20.1%; with CCRF-CEM [17], 4.9%; with CCRF-CEM [18] it was 18.8%; in the test with CCRF-CEM [19], 20.2%; with CCRF-CEM [20], 51%. Besides, the Activity in the test with CCRF-CEM [21] worked out at 10.6%; in the test on CCRF-CEM [22] it was 19.6%; in the test on CCRF-CEM [23] it was 3.2%; in the test on CCRF-CEM [24], 21.7%; in the test on CCRF-CEM [25] it was 15.1%; in the test with CCRF-CEM [26], 9.8%. Also, in the test with CCRF-CEM [27], the Activity was 5.4%. The result in test [2] was Active. The IC50 with CCRF-CEM [8] was 5130 nM.
